Key:
[1] = Hydroscopicity check: granulated material stored overnight in the open; assay type: physicochemical; conditions: for Hydroscopicity of granulated material (in words): material melt-granulated at about 340-360° F.; for % Gain (weight, stored in the open): 24 hrs
Procedure: A sample of the material granulated in the previous run at about 350° F. was screened, and the material falling into a −8 mesh class was stored overnight in the open to check for hydroscopicity.

Pioneer brand 34RO7 corn = assay: Greenhouse evaluation study on use of ZDC as zinc fertilizer on corn; assay type: in vivo; conditions: for Dry Matter: corn harvested at 5-6 leaf stage, low-Zn Wymore silt loam soil; for Uptake P / Uptake Zn: calculated as dry matter times concentration; for Plant concentration P / Plant concentration Zn: dry plant material, ICP
Procedure: A greenhouse study was conducted to evaluate ZDC.
The soil source was a surface soil from a severely eroded Wymore silt loam soil (fine, smectitic, mesic Aquertic Argiudolls). Zinc deficiency symptoms on corn had been observed on the site during the 1999 growing season.
The soil was air-dried and sieved through a 1 cm coarse sieve. Five and one-half inch top diameter, plastic-lined pots were used. For each pot, 1600 g of soil was weighed into a plastic bag, and 1 g of monoammonium phosphate (11-52-0) was added to the plastic bags as a nitrogen and phosphorous source to ensure adequate growth. The MPA/soil was thoroughly mixed. About ⅔ of the soil from the thoroughly mixed MAP/soil was added to the plastic-lined pot, with roughly 2 inches of soil remaining to be added to the pot after starter fertilizer application and seed planting. A small furrow was made across the pot and a MAP/zinc starter mix added. An inch of soil was added and 4 seeds of Pioneer brand 34RO7 corn was planted directly over the fertilizer band, and the rest of the soil was added to the pot to cover the seed to one inch deep. Planting was on March 24. The fertilizer rate was calculated as a starter band rate based on the linear feet in an acre planted in 30 inch rows. A 5″ length of row was used in the calculations. […] Six replications were used. Pots were watered from the surface using distilled water. All pots received a blanket application of (NH4)2SO4 at the rate of 50#N/acre at the initial watering and twice more during the duration of the study.
Pots were thinned to three plants per pot approximately 1 week after emergence. Plants were harvested April 28 for dry matter yield by clipping about one-half inch above the soil surface. Samples were oven-dried at 65° C. for 48 hours and weighed.
The dry plant material was ground through a stainless steel small plant grinder to pass a 2 mm sieve. A quarter gram was weighed, wet-ashed with nitric-perchloric acid, and P and Zn concentration determined using an inductive couple plasma (ICP) instrument. Zinc and P uptake were calculated as dry matter times concentration.

[2] = ambient temperatures; cited from earlier work

## N.N.[Cl][Zn][Cl] [ZDC, Zinc diammine chloride]
[1]
  Hydroscopicity of granulated material (in words): very low hydroscopicity
[1]; listed as Zn(NH3)2Cl2
  Hydroscopicity of granulated material (in words): did not appear to be hydroscopic
[1]; −4+6 mesh granulated material
  % Gain (weight, stored in the open): 0.18%
[1]; −4+6 mesh granulated material, starting Wt. 5.0774
  Weight gained at 24 hrs.: 0.0091
[1]; −8 mesh granulated material
  % Gain (weight, stored in the open): 0.37%
[1]; −8 mesh granulated material, starting Wt. 5.5600
  Weight gained at 24 hrs.: 0.0206
Pioneer brand 34RO7 corn; 10# Zn as ZDC compared with 1# Zn as ZDC, from shortly after emergence throughout the study
  Plant height, visual (10# Zn vs 1# Zn): slightly shorter
Pioneer brand 34RO7 corn; Zn rate 1 lb/ac as starter band
  Dry Matter: 7.88 g/pot
Pioneer brand 34RO7 corn; Zn rate 1 lb/ac
  Uptake P: 28.4 mg/pot
  Uptake Zn: .21 μg/pot
  Plant concentration P: .36%
  Plant concentration Zn: 27 ppm
Pioneer brand 34RO7 corn; Zn rate 10 lb/ac as starter band
  Dry Matter: 7.44 g/pot
Pioneer brand 34RO7 corn; Zn rate 10 lb/ac
  Uptake P: 24.6 mg/pot
  Uptake Zn: .35 μg/pot
  Plant concentration P: .33%
  Plant concentration Zn: 47 ppm

## [Cl-].[Cl-].[Zn+2] [zinc chloride]
[2]
  Zinc content of solution (solubility): 30 % zinc

— patent US6454828B1 (Nulex, Inc., priority 2000, dated 2002)
